Like-named read-outs stand apart in the source and are kept apart here.
Key:
[1] = system: 229E human corona virus (hCoV); assay: 229E Live Virus Assay (MRC-5 cells, CPE, ATPlite readout); type: cell-based, hCoV-229E; details: Human coronavirus 229E, MRC5, 144 h, read-out: 229E EC50
SARS-CoV-2 3CL-protease = SARS-CoV-2 3CL-protease (Severe acute respiratory syndrome coronavirus 2 (2019-nCoV) (SARS-CoV-2), UniProt P0DTD1); assay: SARS-CoV-2 3C-Like (3CL) Protease Fluorescence Assay (FRET); type: biochemical
[2] = MRC-5 cells, hCoV-229E MOI 0.05, 6 days at 34° C., ATPlite, duplicate, ranges defined in μM

Compound	EC50 [1] [µM]	IC50 (SARS-CoV-2 3CL-protease) [nM]	EC50 [1, 2] [µM]
CC(C)C[C@@H](C(=O)N1C[C@]2(C[C@H]1C#N)C(=O)Nc1ccccc12)N(C)C(=O)[C@@H](NC(=O)OCc1ccccc1)C1CCCCC1 [Example 20]	< 0.1	< 100	–
CC(C)C[C@@H](C(=O)N1C[C@]2(C[C@H]1C#N)C(=O)Nc1ccccc12)N(C)C(=O)[C@@H](NC(=O)C(F)(F)F)C1CCCCC1 [Example 21]	< 0.1	< 100	–
CC(C)C[C@@H](C(=O)N1C[C@]2(C[C@H]1C#N)C(=O)Nc1ccccc12)N(C)C(=O)C(NC(=O)OCc1ccccc1)c1ccccc1 (stereo partly shown) [Example 22]	< 0.1	< 100	–
COC(=O)N[C@H](C(=O)N(C)[C@@H](CC(C)C)C(=O)N1C[C@]2(C[C@H]1C#N)C(=O)Nc1ccccc12)C1CCCCC1 [Example 23]	0.1 to 1	< 100	–
CC(C)C[C@@H](C(=O)N1C[C@]2(C[C@H]1C#N)C(=O)Nc1ccccc12)N(C)C(=O)[C@H](CC1CCC1)NC(=O)OCc1ccccc1 [Example 24]	< 0.1	< 100	–
CC(C)C[C@@H](C(=O)N1C[C@]2(C[C@H]1C#N)C(=O)Nc1ccccc12)N(C)C(=O)[C@H](CC(C)(C)C)NC(=O)OCc1ccccc1 [Example 25]	< 0.1	< 100	–
CC(C)C[C@@H](C(=O)N1C[C@]2(C[C@H]1C#N)C(=O)Nc1ccccc12)N(C)C(=O)[C@H](CC(C)(C)C)NC(=O)C(F)(F)F [Example 26]	< 0.1	< 100	–
CC(C)C[C@@H](C(=O)N1C[C@]2(C[C@H]1C#N)C(=O)Nc1ccccc12)N(C)C(=O)[C@H](CC1CCC1)NC(=O)C(F)(F)F [Example 27]	< 0.1	< 100	–
CN(C(=O)[C@@H](NC(=O)OCc1ccccc1)C(C)(C)C)[C@@H](Cc1ccccc1)C(=O)N1C[C@]2(C[C@H]1C#N)C(=O)Nc1ccccc12 [Example 28]	0.1 to 1	< 100	–
CN(C(=O)[C@@H](N)C(C)(C)C)[C@@H](Cc1ccccc1)C(=O)N1C[C@]2(C[C@H]1C#N)C(=O)Nc1ccccc12 [Example 29]	0.1 to 1	< 100	–
CN(C(=O)[C@@H](NCc1cc(F)c(F)cc1F)C(C)(C)C)[C@@H](Cc1ccccc1)C(=O)N1C[C@]2(C[C@H]1C#N)C(=O)Nc1ccccc12 [Example 30]	0.1 to 1	< 100	–
CC(C)C[C@@H](C(=O)N1C[C@]2(C[C@H]1C#N)C(=O)Nc1ccccc12)N(C)C(=O)[C@H](CC(C)(C)C)N(C)C(=O)OCc1ccccc1 [Example 32]	< 0.1	< 100	–
CC(C)C[C@@H](C(=O)N1C[C@]2(C[C@H]1C#N)C(=O)Nc1ccccc12)N(C)C(=O)[C@H](CC(C)(C)C)NC(=O)c1ccc(F)cc1 [Example 34]	< 0.1	< 100	–
CC(C)C[C@@H](C(=O)N1C[C@]2(C[C@H]1C#N)C(=O)Nc1ccccc12)N(C)C(=O)[C@H](CC1CCC1)NC(=O)c1ccc(F)cc1 [Example 35]	< 0.1	< 100	–
CC(C)C[C@H](NC(=O)[C@@H](NC(=O)OCc1ccccc1)C(C)(C)C)C(=O)N1C[C@]2(C[C@H]1C#N)C(=O)Nc1ccccc12 [Example 36]	0.1 to 1	< 100	–
Cc1cc(C(=O)N[C@@H](Cc2ccc(F)cc2)C(=O)N(C)[C@@H](CC(C)(C)C)C(=O)N2C[C@]3(C[C@H]2C#N)C(=O)Nc2ccccc23)no1 [Example 39]	< 0.1	< 100	–
Cc1cc(C(=O)N[C@H](C(=O)N(C)[C@@H](CC(C)C)C(=O)N2C[C@]3(C[C@H]2C#N)C(=O)Nc2ccccc23)C2CCCCC2)no1 [Example 40]	0.1 to 1	< 100	–
CC(=O)N[C@@H](CC1CC1)C(=O)N(C)[C@@H](CC(C)C)C(=O)N1C[C@]2(C[C@H]1C#N)C(=O)Nc1ccccc12 [Example 41]	< 0.1	< 100	–
CC(C)C[C@@H](C(=O)N1C[C@]2(C[C@H]1C#N)C(=O)Nc1ccccc12)N(C)C(=O)[C@H](CC1CCC1)NC(=O)C(C)(C)C [Example 42]	< 0.1	< 100	–
CC(C)C[C@@H](C(=O)N1C[C@]2(C[C@H]1C#N)C(=O)Nc1ccccc12)N(C)C(=O)[C@H](CC(C)(C)C)NC(=O)C(C)(C)C [Example 43]	< 0.1	< 100	–
CC(=O)N(C)[C@@H](CC(C)(C)C)C(=O)N(C)[C@@H](CC(C)C)C(=O)N1C[C@]2(C[C@H]1C#N)C(=O)Nc1ccccc12 [Example 44]	0.1 to 1	< 100	–
CC(C)C[C@@H](C(=O)N1C[C@]2(C[C@H]1C#N)C(=O)Nc1ccccc12)N(C)C(=O)[C@H](CC1CCC1)NC(=O)c1cc2c(F)cc(F)c(F)c2[nH]1 [Example 45]	0.1 to 1	< 100	–
CC(C)[C@H](NC(=O)OC(C)(C)C)C(=O)N(C)[C@@H](Cc1ccccc1)C(=O)N1C[C@]2(C[C@H]1C#N)C(=O)Nc1ccccc12 [Example 47]	< 0.1	< 100	–
CC(C)[C@@H](NC(=O)OC(C)(C)C)C(=O)N(C)[C@@H](Cc1ccccc1)C(=O)N1C[C@]2(C[C@H]1C#N)C(=O)Nc1ccccc12 [Example 48]	< 0.1	< 100	–

Compound	EC50 [1] [µM]	IC50 (SARS-CoV-2 3CL-protease) [nM]	EC50 [1, 2] [µM]
CC(C)C[C@@H](C(=O)N1C[C@]2(C[C@H]1C#N)C(=O)Nc1ccccc12)N(C)C(=O)[C@@H](NC(=O)OCc1ccccc1)C(C)C [Example 49]	< 0.1	< 100	–
CC(C)C[C@@H](C(=O)N1C[C@]2(C[C@H]1C#N)C(=O)Nc1ccccc12)N1CC[C@H](NC(=O)C(F)(F)F)C1=O [Example 50]	> 1	100 to 1000	–
CC(C)[C@@H](NC(=O)C(F)(F)F)C(=O)N(C)[C@@H](Cc1ccccc1)C(=O)N1C[C@]2(C[C@H]1C#N)C(=O)Nc1ccccc12 [Example 51]	–	< 100	0.1 to 1
CN(C(=O)[C@H](Cc1ccc(F)cc1)N1CCOC1=O)[C@@H](CC(C)(C)C)C(=O)N1C[C@]2(C[C@H]1C#N)C(=O)Nc1ccccc12 [Example 52]	< 0.1	< 100	–
CN(C(=O)[C@H](Cc1ccc(F)cc1)n1cc(-c2ccccc2)nn1)[C@@H](CC(C)(C)C)C(=O)N1C[C@]2(C[C@H]1C#N)C(=O)Nc1ccccc12 [Example 54]	< 0.1	< 100	–
CC(C)(C)C(N)C(=O)N1CCC[C@H]1C(=O)N1C[C@]2(C[C@H]1C#N)C(=O)Nc1ccccc12 (stereo partly shown) [Example 56]	–	> 1000	> 1
CC(C)(C)C(NS(=O)(=O)c1ccccc1)C(=O)N1CCC[C@H]1C(=O)N1C[C@]2(C[C@H]1C#N)C(=O)Nc1ccccc12 (stereo partly shown) [Example 57]	> 1	> 1000	–
CC(C)(C)C(NC(=O)c1ccc(F)cc1)C(=O)N1CCC[C@H]1C(=O)N1C[C@]2(C[C@H]1C#N)C(=O)Nc1ccccc12 (stereo partly shown) [Example 58]	> 1	> 1000	–
CC(C)OC(=O)NC(C(=O)N1CCC[C@H]1C(=O)N1C[C@]2(C[C@H]1C#N)C(=O)Nc1ccccc12)C(C)(C)C (stereo partly shown) [Example 59]	> 1	> 1000	–
CC(C)(C)C(NC(=O)NCc1ccccc1)C(=O)N1CCC[C@H]1C(=O)N1C[C@]2(C[C@H]1C#N)C(=O)Nc1ccccc12 (stereo partly shown) [Example 60]	> 1	> 1000	–
CC(C)(C)C(NCc1cc(F)c(F)cc1F)C(=O)N1CCC[C@H]1C(=O)N1C[C@]2(C[C@H]1C#N)C(=O)Nc1ccccc12 (stereo partly shown) [Example 61]	> 1	> 1000	–
CC(C)(C)C[C@H](NC(=O)[C@H](Cc1ccc(F)cc1)NC(=O)OCc1ccccc1)C(=O)N1C[C@]2(C[C@H]1C#N)C(=O)Nc1ccccc12 [Example 62]	> 1	< 100	–
CC(C)(C)C[C@H](NC(=O)[C@H](Cc1ccc(F)cc1)NC(=O)C(F)(F)F)C(=O)N1C[C@]2(C[C@H]1C#N)C(=O)Nc1ccccc12 [Example 63]	–	< 100	< 0.1
CN(C(=O)[C@H](Cc1ccc(F)cc1)NC(=O)C1CCC1)[C@@H](CC(C)(C)C)C(=O)N1C[C@]2(C[C@H]1C#N)C(=O)Nc1ccccc12 [Example 64]	< 0.1	< 100	–
CN(C(=O)[C@H](Cc1ccc(F)cc1)NC(=O)C1COC1)[C@@H](CC(C)(C)C)C(=O)N1C[C@]2(C[C@H]1C#N)C(=O)Nc1ccccc12 [Example 65]	< 0.1	< 100	–
CN(C(=O)[C@H](Cc1ccc(F)cc1)NS(=O)(=O)C1CC1)[C@@H](CC(C)(C)C)C(=O)N1C[C@]2(C[C@H]1C#N)C(=O)Nc1ccccc12 [Example 66]	< 0.1	< 100	–
CN(C(=O)[C@H](Cc1ccc(F)cc1)N1CCCC1=O)[C@@H](CC(C)(C)C)C(=O)N1C[C@]2(C[C@H]1C#N)C(=O)Nc1ccccc12 [Example 67]	< 0.1	< 100	–
CN(C(=O)[C@H](Cc1ccc(F)cc1)NC(=O)N1CCOCC1)[C@@H](CC(C)(C)C)C(=O)N1C[C@]2(C[C@H]1C#N)C(=O)Nc1ccccc12 [Example 68]	< 0.1	< 100	–
CN(C(=O)[C@H](Cc1ccc(F)cc1)N1CCCNC1=O)[C@@H](CC(C)(C)C)C(=O)N1C[C@]2(C[C@H]1C#N)C(=O)Nc1ccccc12 [Example 69]	0.1 to 1	< 100	–
CN(C(=O)[C@H](CC1CC1)NS(=O)(=O)c1ccn(-c2ccc(F)cc2)n1)[C@@H](CC(C)(C)C)C(=O)N1C[C@]2(C[C@H]1C#N)C(=O)Nc1ccccc12 [Example 70]	< 0.1	< 100	–
CN(C(=O)[C@H](CC1CC1)N1CCOC1=O)[C@@H](CC(C)(C)C)C(=O)N1C[C@]2(C[C@H]1C#N)C(=O)Nc1ccccc12 [Example 72]	< 0.1	< 100	–
[2H]C([2H])([2H])N(C(=O)[C@H](CC1CC1)NC(C)=O)[C@@H](Cc1ccc(F)cc1)C(=O)N1C[C@]2(C[C@H]1C#N)C(=O)Nc1ccccc12 [Example 73]	< 0.1	< 100	–
[2H]C([2H])([2H])N(C(=O)[C@H](CC1CC1)NC(=O)C(F)(F)F)[C@@H](Cc1ccc(F)cc1)C(=O)N1C[C@]2(C[C@H]1C#N)C(=O)Nc1ccccc12 [Example 74]	< 0.1	< 100	–
